Data from US20250059180A1 (DONG WHA PHARM. CO., LTD., priority 2022, published 2025).
Where two headings read alike, the source gives them in different places.

Tested on: Pfeiffer cells, lymphoma cells having EZH2 mutation (A677G)
Assay: Proliferation inhibition of cells of hematologic malignancies (CCK-8, 11 days)
Assay type: cell-based
Conditions: 11 days culture, read-out: Cell proliferation inhibitory effect (IC50)
Method: The growth inhibitory activity of 1,3-benzodioxole derivative compounds represented by chemical formula I of the present invention against Pfeiffer cells, which are lymphoma cells having EZH2 mutation (A677G), was evaluated.
Pfeiffer was cultured using RPMI1640 containing 10% fetal bovine serum. The cells were inoculated into wells of a 96-well culture dish at 10,000 cells each, and cultured for 11 days after treating with the test material for each concentration. For 11 days, the test material was replaced every three to four days. After culturing, the cells were treated with a cell counting kit-8 (CCK-8) reagent for each well, absorbance was measured at 450 nm, and IC50 values for cell proliferation were obtained through curve fitting of non-linear regression in the GraphPad program (GraphPad Prism 5.0 software).

IC50 (Homo sapiens, Pfeiffer, 264 h) [nM]	IC50 [nM]	SMILES
≥ 100		CSc1cc(C)[nH]c(=O)c1CNC(=O)c1cc(-c2ccc3occc3c2)c2c(c1C)OC(C)(C1CCN(CC(F)F)CC1)O2 (stereo not shown) [Compound 97, 7-(benzofuran-5-yl)-2-(1-(2,2-difluoroethyl)piperidin-4-yl)-2,4-dimethyl-N-((6-methyl-4-(methylthio)-2-oxo-1,2-dihydropyridin-3-yl)methyl)benzo[d][1,3]dioxole-5-carboxamide]
≤ 10		CSc1cc(C)[nH]c(=O)c1CNC(=O)c1cc(-c2cnc(N3C[C@@H](C)O[C@@H](C)C3)nc2)c2c(c1C)OC(C)([C@H]1CC[C@H](N(C)C)CC1)O2 (stereo partly drawn) [Compound 2, 2-(trans-4-(dimethylamino)cyclohexyl)-7-(2-((2S,6R)-2,6-dimethylaminomorpholino)pyrimidin-5-yl)-2,4-dimethyl-N-((6-methyl-4-(methylthio)-2-oxo-1,2-dihydropyridin-3-yl)methyl)benzo[d][1,3]dioxole-5-carboxamide]
	≤ 10	CCN1CCC(C2(C)Oc3c(-c4ccc(N5C[C@@H](C)O[C@@H](C)C5)nc4)cc(C(=O)NCc4c(SC)cc(C)[nH]c4=O)c(C)c3O2)CC1 (single isomer, unassigned) [Compound 49]
≤ 10		COCCN(C)[C@H]1CC[C@H](C2(C)Oc3c(-c4cnc(N5C[C@@H](C)O[C@@H](C)C5)nc4)cc(C(=O)NCc4c(SC)cc(C)[nH]c4=O)c(C)c3O2)CC1 (stereo partly drawn) [Compound 25, 7-(2-((2S,6R)-2,6-dimethylmorpholino)pyrimidin-5-yl)-2-(trans-4-((2-methoxyethyl)(methyl)amino)cyclohexyl)-2,4-dimethyl-N-((6-methyl-4-(methylthio)-2-oxo-1,2-dihydropyridin-3-yl)methyl)benzo[d][1,3]dioxole-5-carboxamide]
≤ 10		CSc1cc(C)[nH]c(=O)c1CNC(=O)c1cc(-c2ccoc2)c2c(c1C)OC(C)([C@H]1CC[C@H](N(C)C)CC1)O2 (stereo partly drawn) [Compound 18, 2-(trans-4-(dimethylamino)cyclohexyl)-7-(furan-3-yl)-2,4-dimethyl-N-((6-methyl-4-(methylthio)-2-oxo-1,2-dihydropyridin-3-yl)methyl)benzo[d][1,3]dioxole-5-carboxamide]
10 to 100		COc1ccc(F)cc1-c1cc(C(=O)NCc2c(SC)cc(C)[nH]c2=O)c(C)c2c1OC(C)([C@H]1CC[C@H](N(C)C)CC1)O2 (stereo partly drawn) [Compound 12, 2-(trans-4-(dimethylamino)cyclohexyl)-7-(5-fluoro-2-methoxyphenyl)-2,4-dimethyl-N-((6-methyl-4-(methylthio)-2-oxo-1,2-dihydropyridin-3-yl)methyl)benzo[d][1,3]dioxole-5-carboxamide]
≤ 10		CSc1cc(C)[nH]c(=O)c1CNC(=O)c1cc(-c2ccc(N3CCOCC3)nc2)c2c(c1C)OC(C)(C1CCN(CC(F)(F)F)CC1)O2 (stereo not shown) [Compound 61, 2,4-dimethyl-N-((6-methyl-4-(methylthio)-2-oxo-1,2-dihydropyridin-3-yl)methyl)-7-(6-morpholinopyridin-3-yl)-2-(1-(2,2,2-trifluoro)piperidin-4-yl)benzo[d][1,3]dioxole-5-carboxamide]
10 to 100		CSc1cc(C)[nH]c(=O)c1CNC(=O)c1cc(-c2ccc(N3C[C@@H](C)O[C@@H](C)C3)nc2)c2c(c1C)OC(C)([C@H]1CC[C@H](N(C)C(=O)C(F)(F)F)CC1)O2 (stereo partly drawn) [Compound 115, 7-(6-((2S,6R)-2,6-dimethylmorpholino)pyridin-3-yl)-2,4-dimethyl-N-((6-methyl-4-(methylthio)-2-oxo-1,2-dihydropyridin-3-yl)methyl)-2-(trans-4-(2,2,2-trifluoro-N-methylacetamido)cyclohexyl)benzo[d][1,3]dioxole-5-carboxamide]
≤ 10		CSc1cc(C)[nH]c(=O)c1CNC(=O)c1cc(-c2ccc(N3C[C@@H](C)O[C@@H](C)C3)nc2)c2c(c1C)OC(C)([C@H]1CC[C@H](N3CC(O)C3)CC1)O2 (stereo partly drawn) [Compound 101, 7-(6-((2S,6R)-2,6-dimethylmorpholino)pyridin-3-yl)-2-(trans-4-(3-hydroxyazetidin-1-yl)cyclohexyl)-2,4-dimethyl-N-((6-methyl-4-(methylthio)-2-oxo-1,2-dihydropyridin-3-yl)methyl)benzo[d][1,3]dioxole-5-carboxamide]
	≤ 10	CCN1CCC(C2(C)Oc3c(-c4cnc(N5CCOCC5)nc4)cc(C(=O)NCc4c(SC)cc(C)[nH]c4=O)c(C)c3O2)CC1 (single isomer, unassigned) [Compound 73, 2-(1-ethylpiperidin-4-yl)-2,4-dimethyl-N-((6-methyl-4-(methylthio)-2-oxo-1,2-dihydropyridin-3-yl)methyl)-7-(2-morpholinopyrimidin-5-yl)benzo[d][1,3]dioxole-5-carboxamide]
	10 to 100	CCN(C)c1ccc(-c2cc(C(=O)NCc3c(SC)cc(C)[nH]c3=O)c(C)c3c2OC(C)(C2CCN(CC(F)(F)F)CC2)O3)cn1 (stereo not shown) [Compound 87, 7-(6-(ethyl(methyl)amino)pyridin-3-yl)-2,4-dimethyl-N-((6-methyl-4-(methylthio)-2-oxo-1,2-dihydropyridin-3-yl)methyl)-2-(1-(2,2,2-trifluoroethyl)piperidin-4-vi)benzo[d][1,3]dioxole-5-carboxamide]
≤ 10		CSc1cc(C)[nH]c(=O)c1CNC(=O)c1cc(-c2cnc(N3CCCC3)nc2)c2c(c1C)OC(C)([C@H]1CC[C@H](N(C)C)CC1)O2 (stereo partly drawn) [Compound 5, 2-(trans-4-(dimethylamino)cyclohexyl)-2,4-dimethyl-N-((6-methyl-4-(methylthio)-2-oxo-1,2-dihydropyridin-3-yl)methyl)-7-(2-(pyrrolidin-1-yl)pyrimidin-5-yl)benzo[d][1,3]dioxole-5-carboxamide]
≤ 10		CSc1cc(C)[nH]c(=O)c1CNC(=O)c1cc(-c2ccc(N3C[C@@H](C)O[C@@H](C)C3)nc2)c2c(c1C)OC(C)([C@H]1CC[C@H](N(C)C3CCCCC3)CC1)O2 (stereo partly drawn) [Compound 114, 2-(trans-4-(cyclohexyl(methyl)amino)cyclohexyl)-7-(6-((2S,6R)-2,6-dimethylmorpholino)pyridin-3-yl)-2,4-dimethyl-N-((6-methyl-4-(methylthio)-2-oxo-1,2-dihydropyridin-3-yl)methyl)benzo[d][1,3]dioxole-5-carboxamide]
	≥ 100	CCN1CCC(C2(C)Oc3c(-c4ccc(N5C[C@@H](C)O[C@@H](C)C5)nc4)cc(C(=O)NCc4c(SC)cc(C)[nH]c4=O)c(C)c3O2)CC1 (single isomer, unassigned) [Compound 50]
≤ 10		COCCN(C)[C@H]1CC[C@H](C2(C)Oc3c(-c4ccc(N5CCC(F)(F)CC5)nc4)cc(C(=O)NCc4c(SC)cc(C)[nH]c4=O)c(C)c3O2)CC1 (stereo partly drawn) [Compound 27, 7-(6-(4,4-difluoropiperidin-1-yl)pyridin-3-yl)-2-(trans-4-((2-methoxyethyl)(methyl)amino)cyclohexyl)-2,4-dimethyl-N-((6-methyl-4-(methylthio)-2-oxo-1,2-dihydropyridin-3-yl)methyl)benzo[d][1,3]dioxole-5-carboxamide]
	≥ 100	CSc1cc(C)[nH]c(=O)c1CNC(=O)c1cc(-c2ccc(N3C[C@@H](C)O[C@@H](C)C3)nc2)c2c(c1C)OC(C)(C1CCN(CC(F)F)CC1)O2 (single isomer, unassigned) [Compound 48]
	≤ 10	CSc1cc(C)[nH]c(=O)c1CNC(=O)c1cc(-c2cnc(N3CCOCC3)nc2)c2c(c1C)OC(C)(C1CCN(CC(F)F)CC1)O2 (single isomer, unassigned) [Compound 71, 2-(1-(2,2-difluoroethyl)piperidin-4-yl)-2,4-dimethyl-N-((6-methyl-4-(methylthio)-2-oxo-1,2-dihydropyridin-3-yl)methyl)-7-(2-morpholinopyrimidin-5-yl)benzo[d][1,3]dioxole-5-carboxamide]
	≤ 10	CCN1CCC(C2(C)Oc3c(-c4cnc(N(C)CC)nc4)cc(C(=O)NCc4c(SC)cc(C)[nH]c4=O)c(C)c3O2)CC1 (single isomer, unassigned) [Compound 83, 7-(2-(ethyl(methyl)amino)pyrimidin-5-yl)-2-(1-ethylpiperidin-4-yl)-2,4-dimethyl-N-((6-methyl-4-(methylthio)-2-oxo-1,2-dihydropyridin-3-yl)methyl)benzo[d][1,3]dioxole-5-carboxamide]
10 to 100		CSc1cc(C)[nH]c(=O)c1CNC(=O)c1cc(-c2ccc(N3CC(C)CC(C)C3)nc2)c2c(c1C)OC(C)(C1CCN(CC(F)(F)F)CC1)O2 (stereo not shown) [Compound 37, 7-(6-(3,5-dimethylpiperidin-1-yl)pyridin-3-yl)-2,4-dimethyl-N-((6-methyl-4-(methylthio)-2-oxo-1,2-dihydropyridin-3-yl)methyl)-2-(1-(2,2,2-trifluoroethyl)piperidin-4-yl)benzo[d][1,3]dioxole-5-carboxamide]
≤ 10		CSc1cc(C)[nH]c(=O)c1CNC(=O)c1cc(-c2ccc(N3CC(C)CC(C)C3)nc2)c2c(c1C)OC(C)([C@H]1CC[C@H](N(C)C)CC1)O2 (stereo partly drawn) [Compound 16, 2-(trans-4-(dimethylamino)cyclohexyl)-7-(6-(3,5-dimethylpiperidin-1-yl)pyridin-3-yl)-2,4-dimethyl-N-((6-methyl-4-(methylthio)-2-oxo-1,2-dihydropyridin-3-yl)methyl)benzo[d][1,3]dioxole-5-carboxamide]
	≤ 10	CSc1cc(C)[nH]c(=O)c1CNC(=O)c1cc(-c2ccc(N3C[C@@H](C)O[C@@H](C)C3)nc2)c2c(c1C)OC(C)(C1CCN(C3CCCCC3)CC1)O2 (single isomer, unassigned) [Compound 53]
10 to 100		CSc1cc(C)[nH]c(=O)c1CNC(=O)c1cc(-c2ccc(N3C[C@@H](C)O[C@@H](C)C3)nc2)c2c(c1C)OC(C)([C@H]1CC[C@H](N3CC(OCC(F)(F)F)C3)CC1)O2 (stereo partly shown) [Compound 102]
